In patent US12161114B2, “Overpowered ABA receptor agonists” (The Regents of the University of California, priority 2018, dated 2024):

Key:
wheat seedlings = test: thermal imaging of leaf temperature (anti-transpirant activity), wheat; type: in vivo, Triticum aesitivum
Procedure: To evaluate the effects of the optimized ligands on transpiration, we performed quantitative thermal imaging of 2 week old wheat seedlings (var. Cal Rojo) after chemical or mock treatments. Each pot contained 15 seedlings and was treated as a single replicate for a total of n=4. Seedlings were treated with 10 mL aerosolized solutions containing compounds of interest dissolved in 0.5% DMSO and 0.05% Silwet-77 (Lehle seeds). Thermal images were collected using a FLIR T62101 camera ˜24 hours post treatment. Average leaf temperatures were obtained by averaging the temperatures measured from between 10-15 ˜1 cm^2 area spots from the 15 plants sowed in each replicate pot.
To gain more detailed comparisons of the potency and persistence of different ABA agonists, we treated wheat seedlings (var. WB9229) with a range of agonist concentrations (mock, 11, 33, 100, 300 μM) and collected leaf temperature data at 24 hour intervals for 5 days. Mock treated samples were analyzed with 10 replicates and chemical treatments with 5 replicates. […] The corrected p-values for treatment effects at all time points is summarized in the inset table and highlighted yellow if a significant increase in leaf temperature was observed.

Arabidopsis plants = test: thermal imaging of leaf temperature (anti-transpirant activity), Arabidopsis; type: in vivo, Arabidopsis thaliana; conditions: 50 μM spray, 24 hr after treatment
Procedure: Three to 4 week old Arabidopsis plants were used for thermal imaging, 4 evenly spaced seedlings were included per 4-inch pot, each pot treated as a single measurement. Chemical treatments were as follow: compounds were dissolved in 0.5% DMSO and 0.02% Silwet-77 (Lehle seeds) at 50 μM and rosette leaves treated with 5 mL applied as an aerosol. Thermal images were collected using FLIR T62101 camera 24 hr after treatment. Seedlings positions were randomized to control for microenvironmental differences in the growth room. Treated plants were compared to mock treated plants (sprayed with 5 mL blank 0.5% DMSO/0.02% Silwet-77 solution). Average rosette leaf temperatures were obtained by averaging the temperatures measured from between 10-15˜1 cm^2 area spots from the 4 plants in each replicate pot, using FLIR software. Statistical analyses of the treatment effects were conducted in GraphPad using a one way ANOVA between control and treatment samples and a Dunnett test was used to obtain multiplicity adjusted p values, which are reported in FIG. 15.

tomato plants = test: thermal imaging of leaf temperature (anti-transpirant activity), tomato; type: in vivo, Lycopersicon esculentum; conditions: var. UC82, 50 μM or 100 μM spray, 24 hour intervals for 5 days
Procedure: To evaluate the efficacy of Opa in a different crop species, we performed quantitative thermal imaging in tomato plants. Tomato (var. UC82), seeds were spread on a moist filter paper and incubated in a dark chamber at room temperature for 7 days, after which they were transferred to light. After the first leaves emerged, the seedlings were transferred to soil and grown on a day night cycle; 3-4 w old plants were used for thermal imaging. Before thermal imaging, topical spraying of the plants was performed with a water solution containing ABA, quinabactin or the compound of interest, 0.5% DMSO and 0.05% Silwet-77 (Lehle seeds). 20 mL of 50 μM or 100 μM solutions were sprayed on the plants and thermal images were taken with an infrared camera (FLIR T62101) at 24 hour intervals after treatment for 5 days. […] Mock treated samples were analyzed with 8 replicates and chemical treatments with 4 replicates. […] The corrected p-values for treatment effects at all time points is summarized in the inset table and highlighted yellow if a significant increase in leaf temperature was observed.

PYR1 = molecular target: T1, PYR1 (Arabidopsis thaliana, UniProt O49686); test: receptor-mediated PP2C inhibition assay, fluorescence based, PYR1; type: biochemical
T1 construct: made in house
T1 sequence (O49686 1-191): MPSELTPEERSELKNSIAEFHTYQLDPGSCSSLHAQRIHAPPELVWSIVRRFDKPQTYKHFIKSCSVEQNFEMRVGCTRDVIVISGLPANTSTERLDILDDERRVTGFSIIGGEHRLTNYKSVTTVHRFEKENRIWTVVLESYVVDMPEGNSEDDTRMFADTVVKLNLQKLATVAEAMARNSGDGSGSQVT
T1 sequence (Q9CAJ0 180-511 partner limits assumed): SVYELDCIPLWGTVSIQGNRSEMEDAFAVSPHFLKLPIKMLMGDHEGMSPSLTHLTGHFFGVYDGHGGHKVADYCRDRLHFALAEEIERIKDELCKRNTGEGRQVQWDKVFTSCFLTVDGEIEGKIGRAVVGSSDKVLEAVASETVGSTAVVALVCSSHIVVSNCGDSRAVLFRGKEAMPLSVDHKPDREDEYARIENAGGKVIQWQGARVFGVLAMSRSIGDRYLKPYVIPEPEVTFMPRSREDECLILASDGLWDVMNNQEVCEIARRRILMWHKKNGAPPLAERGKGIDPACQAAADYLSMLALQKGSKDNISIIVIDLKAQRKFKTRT
Procedure: Each ligand was tested at concentrations spanning 7 points between 4 nM and 50 μM in triplicate in a reaction buffer containing 100 mM Tris-HCl-pH7.9, 100 mM NaCl, 30 μg/ml BSA, 0.1% 2-mercaptoethanol, 25 nM ΔN-HAB1, 1 mM 4-methylumbelliferyl phosphate, and different recombinant ABA receptors at 50 nM or 300 nM (for PYL9 or PYL11). The substrate was added ˜20 minutes after the other components had been mixed and fluorescence data collected. Control carrier solvent-only wells were included as a reference and %-activity for tested compounds calculated relative to this control. The dose response data (PP2C activity versus agonist concentration) was fit to a log (inhibitor) vs. response-(variable slope) model using non-linear regression to infer the IC50S, using GraphPad Prism 6.0, to yield the IC50 values shown in FIG. 6.
The potency and selectivity of ligands 2b, 2e-f was established by testing their ability to activate multiple ABA receptor subtypes using the fluorescence based phosphasted assay as outlined in example 2 at a range of concentrations (4 nM to 50 μM). […]
We first explored if replacing the cyclopropyl group with an isopropyl group affects the activity of the ligand against PYR1. Ligands were tested using the fluorescence based PP2C assay described in example 2.

increased potency on PYR1 relative to ABA (PYR1): ~10 ×
SMILES: N#Cc1c(C2CC2)cc(CC(=O)NC2(C(=O)O)CCCCC2)cc1C1CC1 [2f, 1-[2-(4-cyano-3,5-dicyclopropylphenyl)acetamido]cyclohexane-1-carboxylic acid]
anti-transpirant activity (leaf temperature) (wheat seedlings; var. Cal Rojo, 50 μM, ~24 hours post treatment): highly efficacious anti-transpirant
thermal response, potency and persistence (wheat seedlings; var. WB9229, 11, 33, 100, 300 μM, 24 hour intervals for 5 days): potent and persistent thermal response
effects on transpiration (leaf temperature) (Arabidopsis plants): ABA-like effects on transpiration
anti-transpirant activity (leaf temperature) (tomato plants): highly active anti-transpirant in tomato with significantly longer effects than ABA
